Test results as given in paper PMC10762078, “Role of UPF1-LIN28A interaction during early differentiation of pluripotent stem cells” (Nature Communications, 2024).
Entries after “also recorded” stand apart in the source; their conditions may differ. Ends that are not written are not given here.

System: p-UPF1 (Ser1096)
Test: Western blot of p-UPF1 (Ser1096) in CPP-peptide-treated hPSCs
Assay type: cell-based, human
Details: for p-UPF1 (Ser1096)/Calnexin, mean: relative to CPP-P1 = 100, n = 3
Description: For CPP-conjugated peptide delivery, HeLa, 293T, and PA-1 cells were incubated with CPP-conjugated peptides or CPP-FITC at 2 μM in DMEM with 10% FBS for 12 h a day before cell harvest. hPSCs were treated with CPP-conjugated peptides at 10 μM in mTeSR Plus Medium, and the peptide-containing medium was changed every day over 10 days. The ROCK inhibitor (Tocris Bioscience, Y-27632) treated-hPSCs were dissociated into single cells using Accutase (Merck, SCR005) and differentiated into ectoderm, mesoderm, and endoderm using the STEMdiff Trilineage Differentiation Kit ([…] Technologies, 05230) following the manufacturer’s protocol. Differentiated cells treated with CPP-conjugated peptides were analysed at 0, 3, and 5 days for ectoderm and endoderm, and at 0, 3, and 4 days for mesoderm.
Protein samples were loaded for electrophoresis on sodium dodecyl sulphate (SDS) polyacrylamide gels, followed by Coomassie blue staining or transferred to nitrocellulose membranes (Cytiva) for WB. After blocking with 5% non-fat milk (Cellconic) in Tris-buffered saline with Tween-20 for 30 min at room temperature, the membranes were incubated with the following primary antibodies: anti-FLAG (GenScript, A00187; 1:2000), UPF1 (Cell Signaling Technology, 12040; 1:4000), UPF2 (Cell Signaling Technology, 11875; 1:2000), eIF4E (Cell Signaling Technology, 2067; 1:2000), β-actin (Sigma-Aldrich, A2228; 1:4000), GST (Cytiva, 27-4577-01; 1:2000), MYC (Calbiochem, OP10; 1:2000), Calnexin (Cell Signaling Technology, 2679; 1:4000), LIN28A (Cell Signaling Technology, 3978; 1:2000), pSer1096 phosphorylated UPF1 (1:2000)[58], or p-Thr28 phosphorylated UPF1 (ImmuQuest, IQ653; 1:2000). Primary antibodies were incubated overnight at 4 °C and then washed thrice with TBS-T, followed by incubation with secondary antibodies: Goat anti-Rabbit IgG (Invitrogen, 31460; 1:4000), Goat anti-Mouse IgG (Invitrogen, 31430; 1:4000), or Horse anti-Goat IgG (Vector Laboratories, PI-9500; 1:4000) for 1 h at room temperature. For pull-downed protein detection, all primary and secondary antibodies were diluted at 1:10,000. The blots were imaged using ChemiDoc XRS+ System (Bio-Rad) and the greyscale intensity values were quantified using Image Lab 3.0 software (Bio-Rad).
DAPI FITC Merge DAPI FITC Merge CHA15 H9 Pro2 H9
No peptide CPP-FITC Calnexin
For 2-day treatm ent For 4-day treatm ent […]
Student’s t-test was used. Data are presented as m ean values ± S.D (b) and mean values ± SEM (c and d). All statistical test us ed wer e two-s ided. T he m inim um num ber of independent biological replicate experim ents was a, b, and d n = 3, c n = 5. T he experim ents wer e conducted three tim es, each iteration producing consistent results. […]

KKKWCRKKKSSADEKRYRALKRTAERELLMNA [CPP-P8, CPP conjugated to P8]
phosphorylated UPF1 (CHA15 and Pro2 cells, 10 μM): increased phosphorylated UPF1 in CHA15 and Pro2 cells; also recorded: upregulation of p-UPF1 in CHA15 and Pro2 cells
p-UPF1 levels after longer treatment (H9, 4-day treatment): upregulates the levels of p-UPF1
p-UPF1 levels (H9 cells, short treatment, 10 μM): did not elicit a corresponding increase in p-UPF1 levels in H9 cells

KKKWCRKKKSSADEKRYRALKRTAERELLMNA [P8]
p-UPF1 (Ser1096)/Calnexin, mean (CHA15, 2-day treatment): 203%
p-UPF1 (Ser1096)/Calnexin, mean (H9, 2-day treatment): 91%
p-UPF1 (Ser1096)/Calnexin, mean (H9, 4-day treatment): 226%
p-UPF1 (Ser1096)/Calnexin, mean (Pro2, 2-day treatment): 244%

N-QKLDQKELQLEPM-C [P1, reference compound]
p-UPF1 (Ser1096)/Calnexin, mean (CHA15, 2-day treatment): 100%
p-UPF1 (Ser1096)/Calnexin, mean (H9, 2-day treatment): 100%
p-UPF1 (Ser1096)/Calnexin, mean (H9, 4-day treatment): 100%
p-UPF1 (Ser1096)/Calnexin, mean (Pro2, 2-day treatment): 100%
